In brackets after ≈: the same amount, converted by molar mass. Like-named read-outs stand apart in the source and are kept apart here.
What was measured:
Type in all cases: physicochemical
[1] = VT-XRPD analysis of Solid Form B
Procedure: VT-XRPD analysis was carried out on a Philips X'Pert Pro Multipurpose diffractometer equipped with a temperature chamber. The samples were scanned between 4 and 35.99°2θ using Cu K radiation (α1λ=1.54060 Å; α2=1.54443 Å; β=1.39225 Å; α1:α2 ratio=0.5) running in Bragg-Brentano geometry (step size 0.008°2θ) using 40 kV/40 mA generator settings. Solid Form B was analyzed by VT-XRPD to assess changes in form upon heating. The sample was heated at 10° C./min and diffraction pattern collected at various temperatures (based on TG/DSC data).

[2] = Dynamic vapour sorption (DVS) assessment of Solid Form B
[3] = 7-day stability assessment of Solid Form B; conditions: 7 days; for HPLC purity (% rel. Area): input purity 100%
Procedure: 15 mg of Solid Form B was weighed into 3×1.5 mL vials. • One vial was left uncapped, placed inside a scintillation vial and stored at ambient conditions (ca. 20° C.). • One vial was left uncapped and placed inside a scintillation vial. This was placed in a stability oven at 40° C./75% RH. • One vial was capped and placed inside a scintillation vial. This was placed inside an oven at 80° C. After 7 days the samples were removed from their respective conditions, analyzed by XRPD and submitted for HPLC analysis.

[4] = VH-XRPD analysis of Solid Form B
Procedure: VH-XRPD analysis was carried out on a Philips X'Pert Pro Multipurpose diffractometer equipped with a humidity chamber. The samples were scanned between 4 and 35.99°2θ using Cu K radiation (α1λ=1.54060 Å; α2=1.54443 Å; β=1.39225 Å; α1:α2 ratio=0.5) running in Bragg-Brentano geometry (step size 0.008°2θ) using 40 kV/40 mA generator settings. Variable humidity XRPD was carried out using the following method: A diffractogram was collected once each targeted % RH was reached and after the reported time had elapsed (Table 14 below). After 20 hours at 2% RH, some P2O5 was introduced within the stage chamber with the aim of further dry the environment. The sample was kept at these conditions for further 16 hours, during which a diffractogram was collected ever hour.

[5] = Thermodynamic solubility assessment of Solid Form B; conditions: for solubility thermodynamic at 24 h: thermodynamic from solid; for solubility thermodynamic at 24 h / XRPD Pattern of residual solid: 24 hours

Compound: C[C@@H]1CN(Cc2ncccn2)C[C@H]1c1nc2c(cnn2C2CCOCC2)c(=O)[nH]1 [Solid Form B, 6-((3S,4S)-4-methyl-1-(pyrimidin-2-ylmethyl)pyrrolidin-3-yl)-1-(tetrahydro-2H-pyran-4-yl)-1,5-dihydro-4H-pyrazolo[3,4-d]pyrimidin-4-one]
- XRPD (form observed on heating) ([1]; 30 °C, hold 0 mins (last step, after 135 °C)): Solid Form A
- XRPD (form observed on heating) ([1]; 30 °C, hold 0 mins (start), heated at 10 °C/min): Solid Form B
- XRPD (form observed on heating) ([1]; 85 °C, hold 0 mins): Solid Form C
- XRPD (form observed on heating) ([1]; 85 °C, hold 5 mins): Solid Form C
- Solid form observed upon heating (VT-XRPD) ([1]; 130° C.): mixture of Solid Form A and C
- XRPD (form observed on heating) ([1]; 130 °C, hold 0 mins): Solid Form A/C
- Solid form observed upon heating (VT-XRPD) ([1]; 135° C.): consistent with Solid Form A
- XRPD (form observed on heating) ([1]; 135 °C, hold 0 mins): Solid Form A
- XRPD (form observed on heating) ([1]; 135 °C, hold 10 mins): Solid Form A
- Solid form observed upon heating (VT-XRPD) ([1]; heated to 85° C., 10° C./min): Solid Form C
- Uptake (DVS) ([2]; at 80% RH): 4.3 wt. %
- Mass loss on de-sorption/uptake on sorption (DVS) ([2]; between 0 and 10% RH): ca. 2.6 wt. %
- Mass loss on de-sorption/uptake on sorption (DVS), water equivalents ([2]; between 0 and 10% RH): 0.6 eq. water
- Uptake (DVS) ([2]; between 40 and 80% RH, first sorption cycle): 0.2 wt. %
- XRPD form after DVS analysis ([2]; post DVS): consistent with Solid Form B with traces of Solid Form C
- Solid form after storage (XRPD) ([3]; 40° C./75% RH): retained
- XRPD (form after storage) ([3]; 40° C./75% RH): Solid Form B
- HPLC purity (% rel. Area) ([3]; 40° C./75% RH): 100 % rel. Area
- Solid form after storage (XRPD) ([3]; 80° C.): converted to a mixture of Solid Form A and Solid Form C
- HPLC purity (% rel. Area) ([3]; 80° C.): 100 % rel. Area
- XRPD (form after storage) ([3]; Ambient Light): Solid Form B
- HPLC purity (% rel. Area) ([3]; Ambient Light): 100 % rel. Area
- Solid form after storage (XRPD) ([3]; ambient temperature (ca. 20° C.)): retained
- Purity change (HPLC) ([3]; ambient, 40° C./75% RH and 80° C.): no drop in purity
- XRPD (form at variable humidity) ([4]; 2% RH, 0.5 hours): Solid Form B
- XRPD (form at variable humidity) ([4]; 2% RH, 20 hours): Solid Form B
- XRPD (form at variable humidity) ([4]; 10% RH, 1 hour): Solid Form B
- XRPD (form at variable humidity) ([4]; 40% RH, 0 hours (start)): Solid Form B
- XRPD (form at variable humidity) ([4]; 40% RH, 0.5 hours): Solid Form B
- XRPD (form at variable humidity) ([4]; 90% RH, 0.5 hours): Solid Form B
- Change in form under variable humidity (VH-XRPD) ([4]; variable % RH, down to 2% RH and with P2O5): no change in form
- Solid form after solubility test (XRPD) ([5]; across the pH range, 25° C.): retained
- solubility thermodynamic at 24 h ([5]; aqueous buffer, pH 4.5 buffer, 25° C., read-out: HPLC conc. (mg/mL), thermodynamic solubility): 162 mg/mL (≈ 411 mM)
- solubility thermodynamic at 24 h ([5]; aqueous buffer, pH 6.8 buffer, 25° C., read-out: HPLC conc. (mg/mL), thermodynamic solubility): 21.8 mg/mL (≈ 55.1 mM)
- solubility thermodynamic at 24 h ([5]; buffer, aqueous buffer, pH 4.5, 25° C., read-out: Thermodynamic solubility): > 150 mg/mL
- XRPD Pattern of residual solid ([5]; pH 1.2 buffer, 25° C.): Solid Form B
- XRPD Pattern of residual solid ([5]; pH 4.5 buffer, 25° C.): Solid Form B
- XRPD Pattern of residual solid ([5]; pH 6.8 buffer, 25° C.): Solid Form B
- solubility thermodynamic at 24 h ([5]; simulated gastric fluid, pH 1.2 buffer, 25° C., read-out: HPLC conc. (mg/mL), thermodynamic solubility): 46.7 mg/mL (≈ 118 mM)

Source: patent publication US12012412B2, “Solid forms of pyrazolo[3,4-d]pyrimidine compounds” (Pfizer Inc., priority 2021, dated 2024)
